The numbers were not newly measured in patent US6500632B1, “Assay for screening inhibitors of C4 plant enzymes” (Australian Institute of Marine Science, priority 1998, dated 2002), which cites them from elsewhere.

Data set [1] deals with T1, phosphoenolpyruvate carboxylase (Zea mays, UniProt P04711).
T1 sequence (P04711 1-970): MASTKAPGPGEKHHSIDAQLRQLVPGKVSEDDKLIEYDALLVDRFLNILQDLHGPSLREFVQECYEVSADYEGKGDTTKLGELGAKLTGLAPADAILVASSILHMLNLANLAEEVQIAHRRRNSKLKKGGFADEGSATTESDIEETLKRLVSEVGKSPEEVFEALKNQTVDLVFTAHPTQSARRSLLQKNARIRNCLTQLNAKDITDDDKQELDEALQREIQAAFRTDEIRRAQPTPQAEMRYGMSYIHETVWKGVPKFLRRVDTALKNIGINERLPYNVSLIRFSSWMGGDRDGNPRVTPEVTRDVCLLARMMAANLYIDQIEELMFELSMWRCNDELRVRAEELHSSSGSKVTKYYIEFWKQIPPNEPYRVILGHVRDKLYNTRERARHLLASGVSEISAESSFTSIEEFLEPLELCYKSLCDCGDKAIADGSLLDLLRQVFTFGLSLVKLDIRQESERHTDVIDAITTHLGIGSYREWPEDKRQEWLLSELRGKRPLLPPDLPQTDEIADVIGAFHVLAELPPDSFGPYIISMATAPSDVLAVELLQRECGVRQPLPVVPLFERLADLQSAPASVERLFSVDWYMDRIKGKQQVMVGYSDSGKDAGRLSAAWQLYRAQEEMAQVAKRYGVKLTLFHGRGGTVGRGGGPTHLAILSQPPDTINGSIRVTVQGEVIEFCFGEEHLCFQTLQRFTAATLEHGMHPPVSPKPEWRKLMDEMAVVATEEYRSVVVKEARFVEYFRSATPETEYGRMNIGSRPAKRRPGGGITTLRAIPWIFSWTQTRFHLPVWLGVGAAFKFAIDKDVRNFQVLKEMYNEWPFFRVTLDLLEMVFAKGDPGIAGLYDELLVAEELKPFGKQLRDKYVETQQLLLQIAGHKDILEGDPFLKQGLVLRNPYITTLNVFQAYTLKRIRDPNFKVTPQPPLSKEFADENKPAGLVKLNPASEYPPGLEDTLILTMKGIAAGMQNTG
The conditions noted are these: literature (Jenkins et al.; McFadden et al.).

The test system of data set [2] is C4 plants. The conditions noted are these: literature.

As to “3,3-dichloro-2(dihydroxy-phosphinoylmethyl)propenoate”, the “inhibition of a C4 enzyme (phosphoenolpyruvate carboxylase)” value in data set [1] is reported as “specifically inhibited”. Besides, in data set [2], the “effect on the growth of C4 plants” value is “no effect”.
